In US20070208005A1, “TETRAHYDROBENZAZEPINES AS ANTAGONISTS AND/OR REVERSE AGONISTS OF THE HISTAMINE H3 RECEPTOR” (priority 2004, published 2007):

target: T1, histamine H3 receptor (Homo sapiens, UniProt Q9Y5N1); assay: Histamine H3 functional antagonist assay ([35S]-GTPγS SPA on membranes of H3 cells); type: biochemical; details: membrane prepared from cultured H3 cells (CHO K1, human H3); histamine at EC80; averages of a number of experiments; read-out: functional pKi (fpKi), H3 functional antagonist assay (converted)
T1 construct: expressed in transfected cells; host or cells: CHO K1 cells (pSwitch/pGene GeneSwitch system, mifepristone-induced), clone 3H3; membranes
T1 sequence (Q9Y5N1 whole entry): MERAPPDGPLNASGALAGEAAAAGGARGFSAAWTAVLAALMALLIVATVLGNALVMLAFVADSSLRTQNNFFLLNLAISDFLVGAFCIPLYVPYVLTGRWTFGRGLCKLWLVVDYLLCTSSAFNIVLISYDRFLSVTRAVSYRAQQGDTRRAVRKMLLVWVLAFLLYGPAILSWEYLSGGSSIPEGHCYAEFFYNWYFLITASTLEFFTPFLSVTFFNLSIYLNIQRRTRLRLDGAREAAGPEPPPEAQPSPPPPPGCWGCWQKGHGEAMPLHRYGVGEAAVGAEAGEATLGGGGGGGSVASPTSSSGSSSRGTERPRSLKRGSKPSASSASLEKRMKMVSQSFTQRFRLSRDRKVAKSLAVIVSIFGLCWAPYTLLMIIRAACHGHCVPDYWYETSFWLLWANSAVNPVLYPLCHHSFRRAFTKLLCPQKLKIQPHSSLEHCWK
Text: A membrane preparation containing histamine H3 receptors may be prepared in accordance with the following procedures:
(i) Generation of Histamine H3 Cell Line
DNA encoding the human histamine H3 gene (Huvar, A. et al. (1999) Mol. Pharmacol. 55(6), 1101-1107) was cloned into a holding vector, pcDNA3.1 TOPO (InVitrogen) and its cDNA was isolated from this vector by restriction digestion of plasmid DNA with the enzymes BamH1 and Not-1 and ligated into the inducible expression vector pGene (InVitrogen) digested with the same enzymes. The GeneSwitch™ system (a system where in transgene expression is switched off in the absence of an inducer and switched on in the presence of an inducer) was performed as described in U.S. Pat. Nos. 5,364,791; 5,874,534; and 5,935,934. Ligated DNA was transformed into competent DH5α E. coli host bacterial cells and plated onto Luria Broth (LB) agar containing Zeocin™ (an antibiotic which allows the selection of cells expressing the sh ble gene which is present on pGene and pSwitch) at 50 μg ml^−1. Colonies containing the re-ligated plasmid were identified by restriction analysis. DNA for transfection into mammalian cells was prepared from 250 ml cultures of the host bacterium containing the pGeneH3 plasmid and isolated using a DNA preparation kit (Qiagen Midi-Prep) as per manufacturers guidelines (Qiagen). CHO K1 cells previously transfected with the pSwitch regulatory plasmid (InVitrogen) were seeded at 2×10e6 cells per T75 flask in Complete Medium, containing Hams F12 (GIBCOBRL, Life Technologies) medium supplemented with 10% v/v dialysed foetal bovine serum, L-glutamine, and hygromycin (100 μg ml^−1), 24 hours prior to use. Plasmid DNA was transfected into the cells using Lipofectamine plus according to the manufacturers guidelines (InVitrogen). 48 hours post transfection cells were placed into complete medium supplemented with 500 μg ml^−1 Zeocin™.
10-14 days post selection 10 nM Mifepristone (InVitrogen), was added to the culture medium to induce the expression of the receptor. 18 hours post induction cells were detached from the flask using ethylenediamine tetra-acetic acid (EDTA; 1:5000; InVitrogen), following several washes with phosphate buffered saline pH 7.4 and resuspended in Sorting Medium containing Minimum Essential Medium (MEM), without phenol red, and supplemented with Earles salts and 3% Foetal Clone II (Hyclone). Approximately 1×10e7 cells were examined for receptor expression by staining with a rabbit polyclonal antibody, 4a, raised against the N-terminal domain of the histamine H3 receptor, incubated on ice for 60 minutes, followed by two washes in sorting medium. Receptor bound antibody was detected by incubation of the cells for 60 minutes on ice with a goat anti rabbit antibody, conjugated with Alexa 488 fluorescence marker (Molecular Probes). Following two further washes with Sorting Medium, cells were filtered through a 50 μm Filcon™ (BD Biosciences) and then analysed on a FACS Vantage SE Flow Cytometer fitted with an Automatic Cell Deposition Unit. Control cells were non-induced cells treated in a similar manner. Positively stained cells were sorted as single cells into 96-well plates, containing Complete Medium containing 500 μg ml^−1 Zeocin™ and allowed to expand before reanalysis for receptor expression via antibody and ligand binding studies. One clone, 3H3, was selected for membrane preparation.
(ii) Membrane Preparation from Cultured Cells
All steps of the protocol are carried out at 4° C. and with pre-cooled reagents. The cell pellet is resuspended in 10 volumes of homogenisation buffer (50 mM N-2-hydroxyethylpiperazine-N′-2-ethanesulfonic acid (HEPES), 1 mM ethylenediamine tetra-acetic acid (EDTA), pH 7.4 with KOH, supplemented with 10e-6M leupeptin (acetyl-leucyl-leucyl-arginal; Sigma L2884), 25 μg/ml bacitracin (Sigma B0125), 1 mM phenylmethylsulfonyl fluoride (PMSF) and 2×10e-6M pepstain A (Sigma)). […]

Row | Ki | SMILES
1 | < 3.16 nM | NC(=O)c1ccc(Cc2ccc3c(c2)CCN(C2CCC2)CC3)cn1 [Example E27, 5-[(3-Cyclobutyl-2,3,4,5-tetrahydro-1H-3-benzazepin-7-yl)methyl]-2-pyridinecarboxamide]
2 | < 3.16 nM | c1cnc(Cc2ccc3c(c2)CCN(C2CCC2)CC3)cn1 [Example E30, 3-Cyclobutyl-7-(2-pyrazinylmethyl)-2,3,4,5-tetrahydro-1H-3-benzazepine]
3 | < 3.16 nM | CCNC(=O)c1cnc(Cc2ccc3c(c2)CCN(C2CCC2)CC3)cn1 [Example E34, 5-[(3-Cyclobutyl-2,3,4,5-tetrahydro-1H-3-benzazepin-7-yl)methyl]-N-ethyl-2-pyrazinecarboxamide]
4 | < 3.16 nM | CNC(=O)c1cnc(Cc2ccc3c(c2)CCN(C2CCCC2)CC3)cn1 [Example E35, 5-[(3-Cyclopentyl-2,3,4,5-tetrahydro-1H-3-benzazepin-7-yl)methyl]-N-methyl-2-pyrazinecarboxamide]
5 | < 3.16 nM | O=C1CCCN1c1ccc(Cc2ccc3c(c2)CCN(C2CCCC2)CC3)cc1 [Example E36, 1-{4-[(3-Cyclopentyl-2,3,4,5-tetrahydro-1H-3-benzazepin-7-yl)methyl]phenyl}-2-pyrrolidinone]
6 | < 3.16 nM | CN1CCN(c2ccc(Cc3ccc4c(c3)CCN(C3CCC3)CC4)cn2)C1=O [Example E40, 1-{5-[(3-Cyclobutyl-2,3,4,5-tetrahydro-1H-3-benzazepin-7-yl)methyl]-2-pyridinyl}-3-methyl-2-imidazolidinone]
7 | < 3.16 nM | CCNC(=O)c1ccc(Cc2ccc3c(c2)CCN(C2CCC2)CC3)cc1 [Example E48, 4-[(3-cyclobutyl-2,3,4,5-tetrahydro-1H-3-benzazepin-7-yl)methyl]-N-ethylbenzamide]
8 | < 3.16 nM | O=C(NC1CCOCC1)c1ccc(Cc2ccc3c(c2)CCN(C2CCC2)CC3)cc1 [Example E50, 4-[(3-cyclobutyl-2,3,4,5-tetrahydro-1H-3-benzazepin-7-yl)methyl]-N-(tetrahydro-2H-pyran-4-yl)benzamide]
9 | < 3.16 nM | CC(C)NC(=O)c1ccc(Cc2ccc3c(c2)CCN(C2CCC2)CC3)cn1 [Example E53, 5-[(3-cyclobutyl-2,3,4,5-tetrahydro-1H-3-benzazepin-7-yl)methyl]-N-(1-methylethyl)-2-pyridinecarboxamide]
10 | < 3.16 nM | O=C(c1ccc(Cc2ccc3c(c2)CCN(C2CCC2)CC3)cn1)N1CCCC1 [Example E54, 3-cyclobutyl-7-{[6-(1-pyrrolidinylcarbonyl)-3-pyridinyl]methyl}-2,3,4,5-tetrahydro-1H-3-benzazepine]
11 | < 3.16 nM | O=C(NC1CCOCC1)c1ccc(Cc2ccc3c(c2)CCN(C2CCC2)CC3)cn1 [Example E55, 5-[(3-cyclobutyl-2,3,4,5-tetrahydro-1H-3-benzazepin-7-yl)methyl]-N-(tetrahydro-2H-pyran-4-yl)-2-pyridinecarboxamide]
12 | < 0.316 nM | c1cc(-c2csnn2)ccc1Cc1ccc2c(c1)CCN(C1CCC1)CC2 [Example E57, 3-cyclobutyl-7-{[4-(1,2,3-thiadiazol-4-yl)phenyl]methyl}-2,3,4,5-tetrahydro-1H-3-benzazepine]

Continued, compound first:

Row | SMILES | Ki
13 | CNC(=O)c1ccc(Cc2ccc3c(c2)CCN(C2CCC2)CC3)cn1 [Example E26, 5-[(3-Cyclobutyl-2,3,4,5-tetrahydro-1H-3-benzazepin-7-yl)methyl]-N-methyl-2-pyridinecarboxamide] | < 3.16 nM
14 | O=C1CCCN1c1ccc(Cc2ccc3c(c2)CCN(C2CCC2)CC3)cc1 [Example E28, 1-{4-[(3-Cyclobutyl-2,3,4,5-tetrahydro-1H-3-benzazepin-7-yl)methyl]phenyl}-2-pyrrolidinone] | < 3.16 nM
15 | O=C1CCCN1c1ccc(Cc2ccc3c(c2)CCN(C2CCC2)CC3)cn1 [Example E29, 1-{5-[(3-Cyclobutyl-2,3,4,5-tetrahydro-1H-3-benzazepin-7-yl)methyl]-2-pyridinyl}-2-pyrrolidinone] | < 3.16 nM
16 | O=C1CCCN1c1cnc(Cc2ccc3c(c2)CCN(C2CCC2)CC3)cn1 [Example E31, 1-{5-[(3-Cyclobutyl-2,3,4,5-tetrahydro-1H-3-benzazepin-7-yl)methyl]-2-pyrazinyl}-2-pyrrolidinone] | < 0.316 nM
17 | CC(=O)Nc1cnc(Cc2ccc3c(c2)CCN(C2CCC2)CC3)cn1 [Example E32, N-{5-[(3-Cyclobutyl-2,3,4,5-tetrahydro-1H-3-benzazepin-7-yl)methyl]-2-pyrazinyl}acetamide] | < 3.16 nM
18 | CNC(=O)c1cnc(Cc2ccc3c(c2)CCN(C2CCC2)CC3)cn1 [Example E33, 5-[(3-Cyclobutyl-2,3,4,5-tetrahydro-1H-3-benzazepin-7-yl)methyl]-N-methyl-2-pyrazinecarboxamide] | < 0.316 nM
19 | O=C1CCCN1c1ccc(Cc2ccc3c(c2)CCN(C2CCCC2)CC3)cn1 [Example E37, 1-{5-[(3-cyclopentyl-2,3,4,5-tetrahydro-1H-3-benzazepin-7-yl)methyl]-2-pyridinyl}-2-pyrrolidinone] | < 3.16 nM
20 | O=C1OCCN1c1ccc(Cc2ccc3c(c2)CCN(C2CCC2)CC3)cn1 [Example E39, 3-{5-[(3-Cyclobutyl-2,3,4,5-tetrahydro-1H-3-benzazepin-7-yl)methyl]-2-pyridinyl}-1,3-oxazolidin-2-one] | < 3.16 nM
21 | N#Cc1ccc(Cc2ccc3c(c2)CCN(C2CCC2)CC3)nc1 [Example E41, 6-[(3-cyclobutyl-2,3,4,5-tetrahydro-1H-3-benzazepin-7-yl)methyl]-3-pyridinecarbonitrile] | < 3.16 nM
22 | CNC(=O)c1ccc(Cc2ccc3c(c2)CCN(C2CCC2)CC3)nc1 [Example E42, 6-[(3-cyclobutyl-2,3,4,5-tetrahydro-1H-3-benzazepin-7-yl)methyl]-N-methyl-3-pyridinecarboxamide] | < 3.16 nM
23 | O=C(c1ccc(Cc2ccc3c(c2)CCN(C2CCC2)CC3)nc1)N1CCCC1 [Example E43, 3-cyclobutyl-7-{[5-(1-pyrrolidinylcarbonyl)-2-pyridinyl]methyl}-2,3,4,5-tetrahydro-1H-3-benzazepine] | < 3.16 nM
24 | NC(=O)c1ccc(Cc2ccc3c(c2)CCN(C2CCC2)CC3)nc1 [Example E44, 6-[(3-cyclobutyl-2,3,4,5-tetrahydro-1H-3-benzazepin-7-yl)methyl]-3-pyridinecarboxamide] | < 3.16 nM
25 | NC(=O)c1ccc(Cc2ccc3c(c2)CCN(C2CCC2)CC3)cc1 [Example E46, 4-[(3-cyclobutyl-2,3,4,5-tetrahydro-1H-3-benzazepin-7-yl)methyl]benzamide] | < 0.316 nM
26 | O=C(c1ccc(Cc2ccc3c(c2)CCN(C2CCC2)CC3)cc1)N1CCCC1 [Example E49, 3-cyclobutyl-7-{[4-(1-pyrrolidinylcarbonyl)phenyl]methyl}-2,3,4,5-tetrahydro-1H-3-benzazepine] | < 3.16 nM
27 | CC(C)NC(=O)c1ccc(Cc2ccc3c(c2)CCN(C2CCC2)CC3)cc1 [Example E51, 4-[(3-cyclobutyl-2,3,4,5-tetrahydro-1H-3-benzazepin-7-yl)methyl]-N-(1-methylethyl)benzamide] | < 3.16 nM
28 | N#Cc1ccc(NC(=O)c2ccc(Cc3ccc4c(c3)CCN(C3CCC3)CC4)cn2)cc1 [Example E56, N-(4-cyanophenyl)-5-[(3-cyclobutyl-2,3,4,5-tetrahydro-1H-3-benzazepin-7-yl)methyl]-2-pyridinecarboxamide] | < 3.16 nM
